For 29 molecules, fold induction results are on record in patent US8759535B2, “Substituted fused imidazole derivatives, pharmaceutical compositions, and methods of use thereof” (High Point Pharmaceuticals, LLC, priority 2010, dated 2014).

Structures are written as SMILES. Structures can show the parent of a compound that is named as a salt.

The test system of the first assay is HMOX1. Kind of assay: HMOX1 Protein Assay (immunostaining of HO-1 in NHLF cells, GE InCell 1000). It is filed as cell-based. The conditions noted are these: Homo sapiens, fold change above DMSO treated cells, 3 μM compound (asterisk), 16 h. The method, boiled down: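 Fold induction of HO-1 over vehicle, normally at 5 μM compound (asterisk marks 3 μM), in 0.8% DMSO medium. Normal human lung fibroblasts were treated 16 h, then paraformaldehyde-fixed, anti-HO-1/Alexa 488 stained with Hoechst, and read by high-content imaging.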
`Cn1c(Nc2nc3ccc(Cl)cc3s2)nc2cc(C(=O)NCCCN)ccc21` [Example 345, 2-(6-Chloro-benzothiazol-2-ylamino)-1-methyl-1H-benzoimidazole-5-carboxylic acid (3-amino-propyl)-amide hydrochloride] registered a fold induction at 3 µM of 26.4.
Same read-out and setting: in the case of `CN1CCN(C(=O)CCNC(=O)c2ccc3c(c2)nc(Nc2nc4ccc(C(F)(F)F)cc4s2)n3C)CC1` [Example 375, 1-Methyl-2-(6-trifluoromethyl-benzothiazol-2-ylamino)-1H-benzoimidazole-5-carboxylic acid [3-(4-methyl-piperazin-1-yl)-3-oxo-propyl]-amide] it was 19.4; in that of `CCN(CC)CCCNC(=O)c1ccc2c(c1)nc(Nc1nc3ccc(C(F)(F)F)cc3s1)n2C` [Example 353, 1-Methyl-2-(6-trifluoromethyl-benzothiazol-2-ylamino)-1H-benzoimidazole-5-carboxylic acid (3-diethylamino-propyl)-amide], 23.
On the same count and under the same terms, in the case of `C[C@@H](O)CN1CC[C@@H](NC(=O)c2ccc3c(c2)nc(Nc2nc4ccc(C(F)(F)F)cc4s2)n3C)C1` [Example 297, 1-Methyl-2-(6-trifluoromethyl-benzothiazol-2-ylamino)-1H-benzoimidazole-5-carboxylic acid [(R)-1-((R)-2-hydroxy-propyl)-pyrrolidin-3-yl]-amide] it was 24.4; in that of `Cn1c(Nc2nc3ccc(Cl)cc3s2)nc2cc(C(=O)NCC(=O)N3CC[C@@H](O)C3)ccc21` [Example 400, 2-(6-Chloro-benzothiazol-2-ylamino)-1-methyl-1H-benzoimidazole-5-carboxylic acid [2-((R)-3-hydroxy-pyrrolidin-1-yl)-2-oxo-ethyl]-amide], 15.
`CO[C@@H]1CCCN(C(=O)CNC(=O)c2ccc3c(c2)nc(Nc2nc4ccc(C(F)(F)F)cc4s2)n3C)C1` [Example 446, 1-Methyl-2-(6-trifluoromethyl-benzothiazol-2-ylamino)-1H-benzoimidazole-5-carboxylic acid [2-((R)-3-methoxy-piperidin-1-yl)-2-oxo-ethyl]-amide] registered a fold induction at 3 µM of 31.3.
In turn, `CNC(=O)CNC(=O)c1ccc2c(c1)nc(Nc1nc3ccc(Cl)cc3s1)n2C` [Example 380, 2-(6-Chloro-benzothiazol-2-ylamino)-1-methyl-1H-benzoimidazole-5-carboxylic acid methylcarbamoylmethyl-amide] gave a fold induction at 3 µM of 30.
Take `Cn1c(Nc2nc3ccc(Cl)cc3s2)nc2cc(C(=O)NCCC(=O)N3CCOCC3)ccc21` [Example 373, 2-(6-Chloro-benzothiazol-2-ylamino)-1-methyl-1H-benzoimidazole-5-carboxylic acid (3-morpholin-4-yl-3-oxo-propyl)-amide]: the fold induction at 3 µM turned out to be 32.
The same measure, in the same setting: in the case of `Cn1c(Nc2nc3ccc(Cl)cc3s2)nc2cc(C(=O)NCCCCCO)ccc21` [Example 227, 2-(6-Chloro-benzothiazol-2-ylamino)-1-methyl-1H-benzoimidazole-5-carboxylic acid (5-hydroxy-pentyl)-amide] it was 14.
The same measure, in the same setting: in the case of `CN(C)C(=O)CCNC(=O)c1ccc2c(c1)nc(Nc1nc3ccc(C(F)(F)F)cc3s1)n2C` [Example 372, 1-Methyl-2-(6-trifluoromethyl-benzothiazol-2-ylamino)-1H-benzoimidazole-5-carboxylic acid (2-dimethylcarbamoyl-ethyl)-amide] it was 25.5; in that of `Cn1c(Nc2nc3ccc(Cl)cc3s2)nc2cc(C(=O)NCCN3CCNCC3)ccc21` [Example 339, 2-(6-Chloro-benzothiazol-2-ylamino)-1-methyl-1H-benzoimidazole-5-carboxylic acid (2-piperazin-1-yl-ethyl)-amide hydrochloride], 10.6.

Staying with this assay, now noted: Homo sapiens, fold change above DMSO treated cells, 5 μM compound, 16 h.
`COCCn1c(Nc2nc3ccc(Cl)cc3s2)nc2cc(C(=O)NCC3CCN(CCO)CC3)ccc21` [Example 304, 2-(6-Chloro-benzothiazol-2-ylamino)-1-(2-methoxy-ethyl)-1H-benzoimidazole-5-carboxylic acid [1-(2-hydroxy-ethyl)-piperidin-4-ylmethyl]-amide]: the fold induction at 5 µM turned out to be 24.7.
The same measure, in the same setting: in the case of `Cn1c(Nc2nc3ccc(OC(F)(F)F)cc3s2)nc2cc(C(=O)NCC3CCCO3)ccc21` (centres unmarked) [Example 18, 1-Methyl-2-(6-trifluoromethoxy-benzothiazol-2-ylamino)-1H-benzoimidazole-5-carboxylic acid (tetrahydro-furan-2-ylmethyl)-amide] it was 20.1; in that of `COCCNC(=O)c1ccc2c(c1)nc(Nc1nc3ccc(Cl)cc3s1)n2C` [Example 31, 2-(6-Chloro-benzothiazol-2-ylamino)-1-methyl-1H-benzoimidazole-5-carboxylic acid (2-methoxy-ethyl)-amide], 23.6; in that of `Cn1c(Nc2nc3ccc(C(F)(F)F)cc3s2)nc2cc(C(=O)NCCOCCF)ccc21` [Example 257, 1-Methyl-2-(6-trifluoromethyl-benzothiazol-2-ylamino)-1H-benzoimidazole-5-carboxylic acid [2-(2-fluoro-ethoxy)-ethyl]-amide], 21.9.
Still for that read-out and setting: in the case of `Cn1c(Nc2nc3ccc(Cl)cc3s2)nc2cc(C(=O)NCCOCCCF)ccc21` [Example 249, 2-(6-Chloro-benzothiazol-2-ylamino)-1-methyl-1H-benzoimidazole-5-carboxylic acid [2-(3-fluoro-propoxy)-ethyl]-amide] it was 31.2; in that of `COCCn1c(Nc2nc3ccc(OC(F)(F)F)cc3s2)nc2cc(C(=O)NCC(=O)N(C)C)ccc21` [Example 188, 1-(2-Methoxy-ethyl)-2-(6-trifluoromethoxy-benzothiazol-2-ylamino)-1H-benzoimidazole-5-carboxylic acid dimethylcarbamoylmethyl-amide], 18.3; in that of `CN(C)C(=O)C1(NC(=O)c2ccc3c(c2)nc(Nc2nc4ccc(OC(F)(F)F)cc4s2)n3C)CC1` [Example 150, 1-Methyl-2-(6-trifluoromethoxy-benzothiazol-2-ylamino)-1H-benzimidazole-5-carboxylic acid (1-dimethylcarbamoyl-cyclopropyl)-amide], 41.6.
Same read-out and setting: in the case of `Cn1c(Nc2nc3ccc(OC(F)(F)F)cc3s2)nc2cc(C(=O)NCCOC(F)(F)F)ccc21` [Example 44, 1-Methyl-2-(6-trifluoromethoxy-benzothiazol-2-ylamino)-1H-benzoimidazole-5-carboxylic acid (2-trifluoromethoxy-ethyl)-amide] it was 12.1; in that of `Cn1c(Nc2nc3ccc(OC(F)(F)F)cc3s2)nc2cc(C(=O)NCC(F)(F)F)ccc21` [Example 16, 1-Methyl-2-(6-trifluoromethoxy-benzothiazol-2-ylamino)-1H-benzoimidazole-5-carboxylic acid (2,2,2-trifluoro-ethyl)-amide], 30.
`CN1CC[C@@H](NC(=O)c2ccc3c(c2)nc(Nc2nc4ccc(Cl)cc4s2)n3C)C1` [Example 316, 2-(6-Chloro-benzothiazol-2-ylamino)-1-methyl-1H-benzoimidazole-5-carboxylic acid ((R)-1-methyl-pyrrolidin-3-yl)-amide]: the fold induction at 5 µM stood at 18.1.
On the same count and under the same terms, in the case of `CCn1c(Nc2nc3ccc(C(F)(F)F)cc3s2)nc2cc(C(=O)NCCOC)ccc21` [Example 182, 1-Ethyl-2-(6-trifluoromethyl-benzothiazol-2-ylamino)-1H-benzoimidazole-5-carboxylic acid (2-methoxy-ethyl)-amide] it was 13; in that of `Cn1c(Nc2nc3ccc(Cl)cc3s2)nc2cc(C(=O)NC3CCN(S(C)(=O)=O)CC3)ccc21` [Example 320, 2-(6-Chloro-benzothiazol-2-ylamino)-1-methyl-1H-benzoimidazole-5-carboxylic acid (1-methanesulfonyl-piperidin-4-yl)-amide], 20.
Same read-out and setting: in the case of `CN(C)CC(=O)NCCNC(=O)c1ccc2c(c1)nc(Nc1nc3ccc(OC(F)(F)F)cc3s1)n2C` [Example 323, 1-Methyl-2-(6-trifluoromethoxy-benzothiazol-2-ylamino)-1H-benzoimidazole-5-carboxylic acid [2-(2-dimethylamino-acetylamino)-ethyl]-amide] it was 113; in that of `Cn1c(Nc2nc3ccc(OC(F)(F)F)cc3s2)nc2cc(C(=O)O)c(F)cc21` [Example 41, 6-Fluoro-1-methyl-2-(6-trifluoromethoxy-benzothiazol-2-ylamino)-1H-benzoimidazole-5-carboxylic acid], 33.3; in that of `CCNC(=O)c1ccc2c(c1)nc(Nc1nc3ccc(C(F)(F)F)cc3s1)n2CC` [Example 181, 1-Ethyl-2-(6-trifluoromethyl-benzothiazol-2-ylamino)-1H-benzoimidazole-5-carboxylic acid ethylamide], 23.
The same measure, in the same setting: in the case of `Cn1c(Nc2nc3ccc(OC(F)(F)F)cc3s2)nc2cc(C(=O)N(CCO)CCO)ccc21` [Example 284, 1-Methyl-2-(6-trifluoromethoxy-benzothiazol-2-ylamino)-1H-benzoimidazole-5-carboxylic acid bis-(2-hydroxy-ethyl)-amide] it was 47.4; in that of `Cn1c(Nc2nc3ccc(OC(F)(F)F)cc3s2)nc2cc(C(=O)NCC(=O)N3CCC[C@H]3CO)ccc21` [Example 406, 1-Methyl-2-(6-trifluoromethoxy-benzothiazol-2-ylamino)-1H-benzoimidazole-5-carboxylic acid [2-((S)-2-hydroxymethyl-pyrrolidin-1-yl)-2-oxo-ethyl]-amide], 31; in that of `Cn1c(Nc2nc3ccc(Cl)cc3s2)nc2cc(C(=O)NCC(=O)NC3CCOCC3)ccc21` [Example 385, 2-(6-Chloro-benzothiazol-2-ylamino)-1-methyl-1H-benzoimidazole-5-carboxylic acid [(tetrahydro-pyran-4-ylcarbamoyl)-methyl]-amide], 24.5.
